Patent US10195179B2, “Spiro-lactam NMDA receptor modulators and uses thereof” (Aptinyx Inc., priority 2016, dated 2019)

Key:
Sprague Dawley rats [1] = assay: Porsolt forced swim test; format: in vivo, rat; conditions: 1-100 μg/kg PO, 1 h post-dosing
Method: A non-clinical in vivo pharmacology study (Porsolt assay) was performed to measure antidepressant-like effects. A negative control (0.5% sodium carboxymethyl cellulose in 0.9% sterile saline vehicle) and a positive control (Compound C) were used to compare against Compound BB. The study allowed for the construction of a dose-response curve of the effects of each compound on the Porsolt forced swim test as assessed by the rats' response (reduced floating time) during a 5-minute swimming test.
Male 2-3 month old Sprague Dawley rats were used (Harlan, Indianapolis, Ind.). Rats were housed in Lucite cages with aspen wood chip bedding, maintained on a 12:12 light:dark cycle (lights on at 5 AM), and given ad libitum access to Purina lab chow (USA) and tap water throughout the study.
The Porsolt forced swim test adapted for use in rats was performed as described by Burgdorf et al., (The long-lasting antidepressant effects of rapastinel (GLYX-13) are associated with a metaplasticity process in the medial prefrontal cortex and hippocampus. Neuroscience 308:202-211, 2015). Animals were placed in a 46 cm tall×20 cm in diameter clear glass tube filled to 30 cm with tap water (23±1° C.) for 15 min on the first day (habituation) and 5 min on the subsequent test day. Animals were tested 1 h post-dosing with the compound BB, positive control (Compound C, 10 μg/kg), or vehicle (0.5% sodium carboxymethyl cellulose (Na-CMC) in 0.9% sterile saline). Water was changed after every other animal. Animals were videotaped, and floating time as defined as the minimal amount of effort required to keep the animals head above water was scored offline by a blinded experimenter with high inter-rater reliability (Pearson's r >0.9).
The maximally efficacious dose was defined as the lowest dose that was statistically different from vehicle but statistically equivalent (per Fisher's PLSD) to the higher doses. […]
Compound AA was assessed in a second set of animals at a single dose at 1 h post-administration and in a third set of animals at 24 h post-administration (FIG. 9B). […]

Sprague Dawley rats [2] = assay: Blast-induced traumatic brain injury/cognitive deficits measured by PEL; format: in vivo, rat; conditions: 10 mg/kg PO 1 h post-blast, PEL 48 hours post-blast
Description: Single blast-induced traumatic brain injury/cognitive deficits were induced, modified for use in rats according to the protocol of Goldstein et al., “Chronic traumatic encephalopathy in blast-exposed military veterans and a blast neurotrauma mouse model,” Science Translational Medicine, Vol. 4, Issue 134, pp. 134ra60, 2012. Male 2-3 month old Sprague Dawley rats were used. Rats were housed in Lucite cages with aspen wood chip bedding, maintained on a 12:12 light:dark cycle (lights on at 5 AM), and given ad libitum access to Purina lab chow (USA) and tap water throughout the study. Rats were first anesthetized using 3.5-4% isoflurane, then the ears were protected with 1.5×1.5 mm foam plugs (Pura-Fit®, Moldex-Metric Inc., Culver City, Calif.), and the rat was placed into a head access rodent thoracic restrainer (Stoelting, USA) to protect the body while allowing the head to move freely. […]
PEL (Positive emotional learning) was conducted 48 hours post-blast. […] High frequency ultrasonic vocalizations (USVs) were recorded and analyzed by sonogram with Avasoft SASlab Pro (Germany) as previously described by Burgdorf et al., “Positive emotional learning is regulated in the medial prefrontal cortex by GluN2B-containing NMDA receptors,” Neuroscience, 192:515-523, 2011. Frequency modulated 50-kHz USVs that occurred during each the no-stimulation periods were quantified to measure PEL. […]

NR2A = NR2A (Homo sapiens, UniProt Q12879); assay: Potentiation of [3H]MK-801 binding, wild-type NMDAR2A; parameters: species or system rat
Chain of NR2A (Q12879 23-1464, species assumed, other chains not shown): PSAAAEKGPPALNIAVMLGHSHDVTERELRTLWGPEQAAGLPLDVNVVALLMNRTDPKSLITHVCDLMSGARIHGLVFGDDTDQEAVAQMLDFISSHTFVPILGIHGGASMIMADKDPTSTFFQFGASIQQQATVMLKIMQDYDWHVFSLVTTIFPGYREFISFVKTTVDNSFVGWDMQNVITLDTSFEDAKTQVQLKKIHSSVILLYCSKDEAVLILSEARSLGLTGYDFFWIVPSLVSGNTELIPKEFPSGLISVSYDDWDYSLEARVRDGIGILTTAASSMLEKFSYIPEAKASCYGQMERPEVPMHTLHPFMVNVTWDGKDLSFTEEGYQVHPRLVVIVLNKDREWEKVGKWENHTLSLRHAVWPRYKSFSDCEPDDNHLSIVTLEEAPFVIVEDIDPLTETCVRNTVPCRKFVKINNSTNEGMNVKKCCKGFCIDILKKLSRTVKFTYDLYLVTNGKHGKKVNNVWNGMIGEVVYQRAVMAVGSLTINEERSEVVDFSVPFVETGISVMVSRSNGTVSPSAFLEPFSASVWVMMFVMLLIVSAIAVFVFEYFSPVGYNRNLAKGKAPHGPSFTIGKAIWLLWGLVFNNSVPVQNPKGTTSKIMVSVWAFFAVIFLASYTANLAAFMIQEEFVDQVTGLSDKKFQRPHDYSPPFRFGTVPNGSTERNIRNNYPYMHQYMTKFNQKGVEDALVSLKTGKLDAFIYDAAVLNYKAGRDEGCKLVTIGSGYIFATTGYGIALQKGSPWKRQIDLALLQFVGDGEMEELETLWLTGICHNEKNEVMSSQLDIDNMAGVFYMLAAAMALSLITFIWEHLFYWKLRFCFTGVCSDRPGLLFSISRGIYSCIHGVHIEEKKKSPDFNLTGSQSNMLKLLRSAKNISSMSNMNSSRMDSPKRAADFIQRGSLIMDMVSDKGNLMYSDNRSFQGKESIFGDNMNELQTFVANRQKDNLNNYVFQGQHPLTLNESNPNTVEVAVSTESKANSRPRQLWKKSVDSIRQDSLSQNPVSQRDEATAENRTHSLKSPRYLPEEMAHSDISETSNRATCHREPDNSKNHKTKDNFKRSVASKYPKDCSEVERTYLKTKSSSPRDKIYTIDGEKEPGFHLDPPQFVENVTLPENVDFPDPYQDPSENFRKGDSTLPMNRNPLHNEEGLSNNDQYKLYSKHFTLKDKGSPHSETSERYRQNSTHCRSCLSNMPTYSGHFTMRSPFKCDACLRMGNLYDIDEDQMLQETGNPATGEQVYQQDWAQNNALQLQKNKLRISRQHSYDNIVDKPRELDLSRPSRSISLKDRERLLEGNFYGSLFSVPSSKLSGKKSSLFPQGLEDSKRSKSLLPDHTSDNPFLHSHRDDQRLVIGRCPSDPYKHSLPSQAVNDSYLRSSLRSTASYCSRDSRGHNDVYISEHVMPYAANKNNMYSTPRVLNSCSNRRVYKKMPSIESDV

[3] = Plasma protein binding assay, human; format: in vitro ADME; conditions: read-out: Plasma Protein binding (% Bound) Plasma human (converted)
Method: Bound drug concentration in the brain was also investigated, and plasma protein binding assays were conducted. The following table (% bound) indicates results for Compound AA and Compound BB.

NR2C = NR2C (Homo sapiens, UniProt Q14957); assay: Potentiation of [3H]MK-801 binding, wild-type NMDAR2C; parameters: species or system rat
Chain of NR2C (Q14957 20-1233, species assumed, other chains not shown): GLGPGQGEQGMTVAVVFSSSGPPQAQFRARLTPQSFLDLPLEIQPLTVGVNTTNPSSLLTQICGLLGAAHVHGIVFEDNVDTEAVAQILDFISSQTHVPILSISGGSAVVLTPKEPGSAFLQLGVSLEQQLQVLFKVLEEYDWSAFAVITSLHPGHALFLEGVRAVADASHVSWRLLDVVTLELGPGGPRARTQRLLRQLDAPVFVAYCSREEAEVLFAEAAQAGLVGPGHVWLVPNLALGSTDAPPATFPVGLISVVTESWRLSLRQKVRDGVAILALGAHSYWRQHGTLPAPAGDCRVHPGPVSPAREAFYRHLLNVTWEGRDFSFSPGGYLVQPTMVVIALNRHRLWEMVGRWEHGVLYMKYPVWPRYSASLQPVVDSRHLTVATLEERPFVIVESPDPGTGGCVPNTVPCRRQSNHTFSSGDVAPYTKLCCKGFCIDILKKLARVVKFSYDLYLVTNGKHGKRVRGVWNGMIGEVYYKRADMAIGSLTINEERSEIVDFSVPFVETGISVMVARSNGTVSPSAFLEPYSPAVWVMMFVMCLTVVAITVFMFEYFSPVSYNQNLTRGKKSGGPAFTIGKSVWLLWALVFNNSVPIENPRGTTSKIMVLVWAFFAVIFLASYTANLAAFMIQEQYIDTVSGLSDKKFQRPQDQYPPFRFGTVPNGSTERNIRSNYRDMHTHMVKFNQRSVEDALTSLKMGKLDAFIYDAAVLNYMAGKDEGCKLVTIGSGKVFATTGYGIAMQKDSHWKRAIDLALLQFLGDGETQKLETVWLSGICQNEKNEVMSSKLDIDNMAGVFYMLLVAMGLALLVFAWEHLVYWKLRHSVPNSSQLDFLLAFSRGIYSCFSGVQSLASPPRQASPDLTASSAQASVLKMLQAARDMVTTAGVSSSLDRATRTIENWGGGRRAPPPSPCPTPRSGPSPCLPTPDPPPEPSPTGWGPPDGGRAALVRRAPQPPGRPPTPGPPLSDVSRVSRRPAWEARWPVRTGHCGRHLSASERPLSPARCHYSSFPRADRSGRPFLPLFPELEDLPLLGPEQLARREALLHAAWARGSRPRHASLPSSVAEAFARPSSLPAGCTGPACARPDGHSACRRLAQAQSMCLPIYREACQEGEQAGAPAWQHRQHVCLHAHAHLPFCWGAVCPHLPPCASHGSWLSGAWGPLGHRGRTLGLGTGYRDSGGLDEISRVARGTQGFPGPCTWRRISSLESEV
Method: Assays were conducted as described by Moskal et al., “GLYX-13: a monoclonal antibody-derived peptide that acts as an N-methyl-D-aspartate receptor modulator,” Neuropharmacology, 49, 1077-87, 2005. The potentiation of [^3H]MK-801 binding (5 nM; 22.5 Ci/mmol) to well washed rat cortical membranes (200 μg) was measured under non-equilibrium conditions (15 min @ 25° C.) in the presence of increasing concentrations of Compound AA or Compound BB.
FIG. 2A depicts the potentiation of [^3H]MK-801 binding for wild-type NMDAR2 subtypes in the presence of Compound AA. FIG. 2B depicts the potentiation of [^3H]MK-801 binding for wild-type NMDAR2 subtypes in the presence of Compound BB. The following table depicts the results (P means potency and A means activity): […]

[4] = potentiation of [3H]MK-801 binding

NR2A A (%) (activity) (NR2A; [4]): 0%
NMDAR2A BINDING PROFILE % 1 mM Glycine (NR2A; relative to 1 mM glycine): 0%
binding to NR2A (in words) (NR2A; statement in description): substantially no binding
NMDAR2A BINDING PROFILE Conclusion (NR2A; wild-type NMDAR2A): WT2A no
fraction unbound [3]: 0.789
NR2C A (%) (activity) (NR2C; [4]): 0%
NMDAR2C BINDING PROFILE % 1 mM Glycine (NR2C; relative to 1 mM glycine): 0%
binding to NR2C (in words) (NR2C; statement in description): substantially no binding
NMDAR2C BINDING PROFILE Conclusion (NR2C; wild-type NMDAR2C): WT2C no
Structure (SMILES): C[C@@H](O)[C@@H](C(N)=O)N1C[C@@]2(CCCN2S(C)(=O)=O)C1=O [Compound BB, (2S,3R)-3-hydroxy-2-((S)-5-(methylsulfonyl)-1-oxo-2,5-diazaspiro[3,4]octan-2-yl)butanamide]
floating time in the Porsolt test (Sprague Dawley rats [1]): produces an antidepressant-like effect as measured by decreased floating time
blast-induced cognitive deficits as measured by PEL (Sprague Dawley rats [2]): reversed blast-induced cognitive deficits
